Reference: patent publication US9241964B2, “Composition from Sphaeranthus indicus and Garcinia mangostana for the control of metabolic syndrome” (LAILA NUTRACEUTICALS, priority 2009, dated 2016)
Values after ≈ are worked out from the molar mass of the structure shown.

Experiments:
[1] = tested on: Matrix Metalloproteinase-3 (MMP-3); assay: Inhibition of MMP-3 production in IL-1β induced A549 cells (ELISA); type: cell-based; settings: 10 ng/mL IL-1β induced A549 human lung tumor cells, 24 h, supernatant ELISA
Protocol: A549 cells were induced with 10 ng/ml human IL-1β in absence or presence of different concentrations of LI/DD-II/054A/01 for 24 h as indicated. Secreted MMP-3 concentration in the cell free culture supernatants was measured using MMP-3 ELISA Development Kit (R&D System, Minneapolis, Minn., USA). The MMP-3 concentration in culture supernatants was estimated quantitatively from the standard curve generated using known concentrations of MMP-3. Percentage of MMP-3 inhibition at each concentration of test compound was calculated from the formula: {(Conc. of MMP-3 in IL-1β induced−Conc. of MMP-3 in the test well)×100}÷Conc. of MMP-3 in IL-1β induced wells.
MMP-3 was evaluated in Interleukin-1β induced human lung tumor cell line A549. Briefly, the cells were cultured in DMEM with 2 mM Glutamine, 100 U/mL penicillin, […] streptomycin and 10% fetal bovine serum (Hyclone, Logan, Utah). Five thousand cells per well were seeded into a 96-well cell culture plate (Corning, USA) one day before the experiment. The culture media was replaced with fresh DMEM containing 10% fetal bovine serum. […] The MMP-3 concentration in culture supernatant was estimated quantitatively by interpolating the optical densities into the standard curve generated from known concentrations of MMP-3. […]

CD36 = assay: Immunoblot of CD36 in high glucose induced J774 macrophage cells; type: cell-based, mouse; settings: glucose 600 mg/dL for 5 days, LI054A01 at 1 μg/ml
Protocol: In macrophages, CD36 is a scavenger receptor that mediates uptake of oxidized low-density lipoprotein (OxLDL) and subsequent foam-cell development. Therefore, increased level of CD36 in macrophages has been considered as a predictive marker for development of atherosclerosis. Inhibition of CD36 protein expression in high glucose induced J774 macrophage cells in presence or absence of LI/DD-II/054A/01 and LI054A01 was evaluated using immunoblot assay. Briefly, equal amount of cell lysates protein obtained after treating the cells with LI/DD-II/054A/01 or LI054A01 was resolved in 7.5% SDS-PAGE; thereafter, the proteins were transferred to nitrocellulose membrane. […] Finally, the specific immuno-reactive bands were developed with West-pico chemiluminescent substrate (Pierce Biotechnology, IL, USA), and the immunoblot images were recorded in a Kodak Image Station (Kodak, USA). Band intensities were calculated densitometrically and normalized with expression of actin in respective samples. […]
Experimental protocol: This was evaluated in glucose induced J774, mouse macrophage cells. […] Protein concentration was measured by Bradford method.
Inhibition of CD36 protein expression in high glucose induced J774 macrophage cells in presence or absence of LI/DD-II/054A/01 and LI054A01 was evaluated in immunoblot assay. […]

C=C1C(=O)O[C@H]2C3=C(C)CCC[C@]3(C)CC[C@@]12O [LI054A01, 7-α-hydroxy-4,11(13)-eudesmadien-12,6-olide]
IC50 against MMP-3 [1]: 0.075 µg/mL (≈ 0.302 µM)
inhibition of CD36 compared to that shown by LI/DD-II/054A/01 (CD36): 10 times
